Measurements as given in patent US6737383B1, “Herbicidal oxadiazolidines” (priority 1999, dated 2004).

How the values were obtained:
wild oat = assay: Test B pre/postemergence wild oat; assay type: in vivo, Avena fatua
In short: (§1)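 Herbicidal effect was estimated by eye on a ten-point control scale after plants spent twelve to sixteen days in a greenhouse following soil or foliar treatment. Foliar sprays targeted plants at one to four leaves; all doses were formulated in a non-phytotoxic solvent with surfactant.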

bedstraw = assay: Test B pre/postemergence bedstraw; assay type: in vivo, Galium aparine; settings: for Bedstraw plant response rating: Postemergence; for Plant response rating, Bedstraw: Preemergence
In short: as §1

morningglory = assay: Test B pre/postemergence morningglory; assay type: in vivo, Ipomoea hederacea
In short: as §1

surinam grass = assay: Test B pre/postemergence surinam grass; assay type: in vivo, Brachiaria decumbens
In short: as §1

corn = assay: Test B pre/postemergence corn; assay type: in vivo, Zea mays
In short: as §1

smallflower flatsedge = assay: Test B flood test smallflower flatsedge; assay type: in vivo, Cyperus difformis
In short: (§2)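 Flood test on plants grown to the 2-leaf stage; treated plants kept in greenhouse twelve to sixteen days, then visually rated against controls on a 0 (no effect) to 10 (complete control) scale.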

rice = assay: Test B flood test rice; assay type: in vivo, Oryza sativa
In short: as §2

soybean = assay: Test B pre/postemergence soybean; assay type: in vivo, Glycine max
In short: as §1

crabgrass = assay: Test B pre/postemergence crabgrass; assay type: in vivo, Digitaria sanguinalis
In short: as §1

purple nutsedge = assay: Test B pre/postemergence purple nutsedge; assay type: in vivo, Cyperus rotundus
In short: as §1

wheat = assay: Test B pre/postemergence wheat; assay type: in vivo, Triticum aestivum
In short: as §1

blackgrass = assay: Test B pre/postemergence blackgrass; assay type: in vivo, Alopecurus myosuroides
In short: as §1

pigweed = assay: Test B pre/postemergence pigweed; assay type: in vivo, Amaranthus retroflexus
In short: as §1

giant foxtail = assay: Test B pre/postemergence giant foxtail; assay type: in vivo, Setaria faberii
In short: as §1

velvetleaf = assay: Test B pre/postemergence velvetleaf; assay type: in vivo, Abutilon theophrasti
In short: as §1

duck salad = assay: Test B flood test duck salad; assay type: in vivo, Heteranthera limosa
In short: as §2

[1] = Postemergence, Rate 62 g/ha, scale 0 to 10, 0 is no effect, 10 is complete control
[2] = Postemergence, Rate 250 g/ha, scale 0 to 10, 0 no effect, 10 complete control
[3] = Preemergence, Rate 125 g/ha, scale 0 to 10 (0 no effect, 10 complete control)
[4] = Preemergence, Rate 250 g/ha, scale of 0 to 10 where 0 is no effect and 10 is complete control
[5] = Preemergence, Rate 500 g/ha, scale 0 (no effect) to 10 (complete control)
[6] = Rate 125 g/ha, Postemergence, scale 0 to 10, 0 no effect, 10 complete control
[7] = Rate 62 g/ha, scale 0 to 10, 0 is no effect, 10 is complete control
[8] = Preemergence, Rate 62 g/ha, scale 0 to 10, 0 is no effect, 10 is complete control
[9] = Rate 500 g/ha, Postemergence, 0 to 10 scale (0 no effect, 10 complete control)
[10] = Rate 125 g/ha, Postemergence section (flood test species), scale 0 to 10, 0 no effect, 10 complete control
[11] = flood test, listed under Postemergence, Rate 250 g/ha, scale 0 to 10, 0 no effect, 10 complete control
[12] = Rate 500 g/ha, Postemergence section of Table B, 0 to 10 scale (0 no effect, 10 complete control)

Cc1c(Cl)cccc1-n1c(=O)on(C(=O)N(c2ccc(F)cc2)C(C)C)c1=O [Compound 21]
9: Giant foxtail plant response rating (giant foxtail; [5])
0: Wild oats plant response rating (wild oat; [1]) | Wild oats plant response rating (wild oat; [2]) | Plant response rating, Wild oats (wild oat; [3]) | Plant response rating, Wild oats (wild oat; [4]) | Wild oats plant response rating (wild oat; [5]) | Wild oats plant response rating (wild oat; [6]) | Bedstraw plant response rating (bedstraw; [7]) | Bedstraw plant response rating (bedstraw; Rate 250 g/ha, scale 0 to 10, 0 no effect, 10 complete control) | Plant response rating, Bedstraw (bedstraw; [7]) | Plant response rating, Bedstraw (bedstraw; Rate 125 g/ha, scale 0 to 10 (0 no effect, 10 complete control)) | Plant response rating, Bedstraw (bedstraw; Rate 250 g/ha, scale of 0 to 10 where 0 is no effect and 10 is complete control) | Bedstraw plant response rating (bedstraw; Rate 125 g/ha, scale 0 to 10, 0 no effect, 10 complete control) | Plant response rating, Morningglory (morningglory; [8]) | Plant response rating, Morningglory (morningglory; [3]) | B. signalgrass plant response rating (surinam grass; [1]) | B. signalgrass plant response rating (surinam grass; [2]) | Plant response rating, B. signalgrass (surinam grass; [8]) | Plant response rating, B. signalgrass (surinam grass; [3]) | Plant response rating, B. signalgrass (surinam grass; [4]) | B. signalgrass plant response rating (surinam grass; [5]) | B. signalgrass plant response rating (surinam grass; [6]) | B. signalgrass plant response rating (surinam grass; [9]) | Corn plant response rating (corn; [1]) | Corn plant response rating (corn; [2]) | Plant response rating, Corn (corn; [8]) | Plant response rating, Corn (corn; [3]) | Plant response rating, Corn (corn; [4]) | Corn plant response rating (corn; [5]) | Corn plant response rating (corn; [6]) | S. Flatsedge plant response rating (smallflower flatsedge; [1]) | S. Flatsedge plant response rating (smallflower flatsedge; [10]) | S. Flatsedge plant response rating (smallflower flatsedge; [11]) | Rice plant response rating (rice; [1]) | Rice plant response rating (rice; [10]) | Rice plant response rating (rice; [12]) | Rice plant response rating (rice; [11]) | Plant response rating, Soybean (soybean; [8]) | Plant response rating, Soybean (soybean; [3]) | Plant response rating, Soybean (soybean; [4]) | Soybean plant response rating (soybean; [5]) | Crabgrass plant response rating (crabgrass; [1]) | Crabgrass plant response rating (crabgrass; [2]) | Crabgrass plant response rating (crabgrass; [6]) | Nutsedge plant response rating (purple nutsedge; [1]) | Nutsedge plant response rating (purple nutsedge; [2]) | Plant response rating, Nutsedge (purple nutsedge; [8]) | Plant response rating, Nutsedge (purple nutsedge; [3]) | Plant response rating, Nutsedge (purple nutsedge; [4]) | Nutsedge plant response rating (purple nutsedge; [5]) | Nutsedge plant response rating (purple nutsedge; [6]) | Nutsedge plant response rating (purple nutsedge; [9]) | Wheat plant response rating (wheat; [1]) | Wheat plant response rating (wheat; [2]) | Plant response rating, Wheat (wheat; [8]) | Plant response rating, Wheat (wheat; [3]) | Plant response rating, Wheat (wheat; [4]) | Wheat plant response rating (wheat; [5]) | Wheat plant response rating (wheat; [6]) | Blackgrass plant response rating (blackgrass; [1]) | Blackgrass plant response rating (blackgrass; [2]) | Plant response rating, Blackgrass (blackgrass; [8]) | Plant response rating, Blackgrass (blackgrass; [3]) | Plant response rating, Blackgrass (blackgrass; [4]) | Blackgrass plant response rating (blackgrass; [5]) | Blackgrass plant response rating (blackgrass; [6]) | Blackgrass plant response rating (blackgrass; [9]) | Redroot pigweed plant response rating (pigweed; [1]) | Redroot pigweed plant response rating (pigweed; [2]) | Redroot pigweed plant response rating (pigweed; [6]) | Redroot pigweed plant response rating (pigweed; [9]) | Giant foxtail plant response rating (giant foxtail; [1]) | Giant foxtail plant response rating (giant foxtail; [2]) | Giant foxtail plant response rating (giant foxtail; [6]) | Velvetleaf plant response rating (velvetleaf; [1]) | Velvetleaf plant response rating (velvetleaf; [2]) | Plant response rating, Velvetleaf (velvetleaf; [8]) | Plant response rating, Velvetleaf (velvetleaf; [3]) | Plant response rating, Velvetleaf (velvetleaf; [4]) | Velvetleaf plant response rating (velvetleaf; [5]) | Velvetleaf plant response rating (velvetleaf; [6]) | Ducksalad plant response rating (duck salad; [1]) | Ducksalad plant response rating (duck salad; [10]) | Ducksalad plant response rating (duck salad; [12]) | Ducksalad plant response rating (duck salad; [11])
3: Corn plant response rating (corn; [9])
6: Bedstraw plant response rating (bedstraw; Rate 500 g/ha, 0 to 10 scale (0 no effect, 10 complete control)) | Plant response rating, Redroot pigweed (pigweed; [8]) | Plant response rating, Redroot pigweed (pigweed; [3]) | Plant response rating, Redroot pigweed (pigweed; [4])
4: Plant response rating, Crabgrass (crabgrass; [8])
8: Morningglory plant response rating (morningglory; [9]) | Redroot pigweed plant response rating (pigweed; [5]) | Plant response rating, Giant foxtail (giant foxtail; [8]) | Plant response rating, Giant foxtail (giant foxtail; [3]) | Plant response rating, Giant foxtail (giant foxtail; [4])
7: Plant response rating, Crabgrass (crabgrass; [3]) | Plant response rating, Crabgrass (crabgrass; [4]) | Crabgrass plant response rating (crabgrass; [5])
2: Morningglory plant response rating (morningglory; [1]) | Morningglory plant response rating (morningglory; [2]) | Plant response rating, Morningglory (morningglory; [4]) | Morningglory plant response rating (morningglory; [5]) | Morningglory plant response rating (morningglory; [6]) | Soybean plant response rating (soybean; [1]) | Soybean plant response rating (soybean; [2]) | Soybean plant response rating (soybean; [6]) | Crabgrass plant response rating (crabgrass; [9]) | Giant foxtail plant response rating (giant foxtail; [9])
